Results on 17 compounds are retold here after US7495023B2, “Thio semicarbazone and semicarbozone inhibitors of cysteine proteases and methods of their use” (The Regents of the University of California, priority 2002, dated 2009).

The target in series [1] is T. cruzi cathepsin L-like protease (cruzain) (Trypanosoma cruzi, UniProt P25779). The experiment in a line: biochemical. The note with it: for IC50: 5 min incubation, room temperature, pH 5.50, read-out: IC50 against cruzain. The protocol: IC50 Determinations. Inhibitors were screened for effectiveness against the T. cruzi cathepsin L-like protease (cruzain) using purified recombinant protein. Cruzain (1 nM) was incubated with 20-50000 nM inhibitor in 100 mM sodium acetate-5 mM DTT buffer (pH 5.50, buffer A) for 5 min at room temperature. […] The increase in fluorescence (excitation at 355 nm and emission at 460 nm) was followed with an automated microtiter plate spectrofluorimeter (Molecular Devices, spectraMAX Gemini). Inhibitor stock solutions were prepared at 20 mM in DMSO, and serial dilutions were made in DMSO (0.7% DMSO in assay). Controls were performed using enzyme alone and enzyme with DMSO. IC50 values were determined graphically using inhibitor concentrations in the linear portion of a plot of inhibition versus log [I] (seven concentrations were tested, and at least two were in the linear range).
Chain of T. cruzi cathepsin L-like protease (cruzain) (P25779 123-467): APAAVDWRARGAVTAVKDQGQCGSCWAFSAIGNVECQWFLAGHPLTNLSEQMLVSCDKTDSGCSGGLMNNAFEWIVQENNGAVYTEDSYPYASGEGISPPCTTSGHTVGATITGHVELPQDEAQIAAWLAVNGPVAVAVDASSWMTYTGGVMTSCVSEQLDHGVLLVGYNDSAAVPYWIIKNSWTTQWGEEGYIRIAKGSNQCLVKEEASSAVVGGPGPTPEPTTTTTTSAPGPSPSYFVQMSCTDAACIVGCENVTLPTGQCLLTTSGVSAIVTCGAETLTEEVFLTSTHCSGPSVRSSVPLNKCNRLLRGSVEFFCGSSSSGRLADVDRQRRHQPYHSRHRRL

For the compound `CN(C)c1ccc(C=NNC(N)=S)c2ccccc12` [Compound 1l, 4-Dimethylamino-1-naphthaldehyde Thio Semicarbazone], the melting point was 170.5 to 171.2 °C.

Compound `Cn1cc(C=NNC(N)=S)c2ccccc21` [Compound 1m, 1-Methylindole-3-carboxaldehyde Thio Semicarbazone] had a melting point of 200.3 to 201.2 °C.

For `CCC(=NNC(N)=S)c1cccc(F)c1` [Compound 2c, 3′-Fluoropropiophenone Thio Semicarbazone], the melting point was 138.8 to 139.5 °C.

`CCC(=NNC(N)=S)c1ccc(Br)cc1` [Compound 2e, 4′-Bromopropiophenone Thio Semicarbazone] registered a melting point of 171.3 to 173 °C.

`CCC(=NNC(N)=S)c1ccc(Cl)cc1Cl` [Compound 2j, 2′,4′-Dichloropropiophenone Thio Semicarbazone] registered a melting point of 171.8 to 173 °C.

In the case of `CCC(=NNC(N)=S)c1cc(C(F)(F)F)cc(C(F)(F)F)c1` [Compound 2h, 3′,5′-bis(trifluoromethyl)propiophenone Thio Semicarbazone], in series [1], the “cruzain inhibitory activity, in words” value is “better IC50 values than 1i” and the IC50 was found to be 20 nM. The “increase in activity over 1i (cruzain)” value in series [1] (compared to 1i) is recorded as around 5 fold.

In the case of `CC(=NNC(N)=S)c1ccccc1Br` [Compound 2l, 2′-Bromoacetophenone Thio Semicarbazone], the melting point is 144.5 to 146.2 °C.

For `NC(=S)NN=Cc1ccccc1C(F)(F)F` [Compound 2p, 2-Trifluoromethylbenzaldehyde Thio Semicarbazone], the melting point lay within 248.3 to 249.4 °C.

Turning to `CCC(=NNC(N)=S)c1ccc2cc(OC)ccc2c1` [Compound 1k, 6′-Methoxy-2′-propiononaphthone Thio Semicarbazone], the melting point lay in the range of 170.5 to 171.2 °C.

Consider `NC(=O)NN=Cc1ccc(-c2cccc(Cl)c2)o1` [Compound 6c, 5-(3-Chlorophenyl)-2-furancarboxaldehyde Semicarbazone], for which the melting point was 192.1 to 194.8 °C.

The compound `CCC(=NN(SC)C(N)=O)c1cccc(Br)c1` [Compound 5a, 3′-Bromopropiophenone N-Methyl Thio Semicarbazone] gave a melting point of 156.6 to 158 °C.

The compound `CC(=NNC(N)=S)c1ccccc1Cl` [Compound 2m, 2′-Chloroacetophenone Thio Semicarbazone] returned a melting point of 155.8 to 156.7 °C.

In the case of `CC(=NNC(N)=O)c1cccc(Br)c1` [Compound 6b, 3′-Bromoacetophenone Semicarbazone], the melting point lay in the range of 229.3 to 231.3 °C.

Compound `CCC(=NNC(N)=S)c1ccc(Cl)cc1` [Compound 2f, 4′-Chloropropiophenone Thio Semicarbazone] registered a melting point of 175.1 to 176.8 °C.

In the case of `CCC(=NNC(N)=S)c1ccccc1` [Compound 2d, Propiophenone Thio Semicarbazone], the melting point lay in the range of 116.8 to 117.9 °C. For the same compound, the “drop / loss of activity compared to 1i (cruzain)” value in series [1] (compared to 1i) is “at least 2 orders of magnitude”.

On to `CCC(=NNC(N)=S)c1ccc(OC)cc1` [Compound 2g, 4′-Methoxypropiophenone Thio Semicarbazone], for which the melting point lay within 117.8 to 119.8 °C.

Consider `CCCCCCNC(=S)N1CCC(c2cccc(Br)c2)=N1` [Compound 5f, 3-(3-Bromophenyl)-2-pyrazoline-1-(N-hexyl)-thiocarboxamide], for which the melting point fell in the range of 117 to 118.2 °C. Besides, in series [1], the IC50 lay in the range of 1000 to 2000 nM.
